Measured values taken from PubChem BioAssay (NCI).
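Growth conditions: 96-well plates. Treatment: test compound, 48 hours, 5 concentrations. Analysis: linear interpolation between bracketing concentrations; unreached endpoints set to highest concentration. GI50 marks 50% less growth. TGI: concentration producing complete growth inhibition.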

Assays:
Assay in all cases: inhibition of tumour cell growth, NCI panel, 48 h
[1] = tested on: HOP-62 NSCLC
[2] = tested on: OVCAR-8 ovarian
[3] = tested on: HCT-15 colon
[4] = tested on: ACHN renal
[5] = tested on: HCT-116 colon
[6] = tested on: UACC-62 melanoma
[7] = tested on: SF-539 CNS
[8] = tested on: HOP-92 NSCLC
[9] = tested on: SNB-19 CNS
[10] = tested on: NCI/ADR-RES ovarian
[11] = tested on: LOX IMVI melanoma
[12] = tested on: CAKI-1 renal
[13] = tested on: RXF 393 renal
[14] = tested on: MCF7 breast
[15] = tested on: BT-549 breast
[16] = tested on: MALME-3M melanoma
[17] = tested on: SK-OV-3 ovarian
[18] = tested on: HL-60(TB) leukemia
[19] = tested on: OVCAR-5 ovarian
[20] = tested on: K-562 leukemia
[21] = tested on: MDA-MB-468 breast
[22] = tested on: NCI-H23 lung
[23] = tested on: SR leukemia
[24] = tested on: SN12C renal
[25] = tested on: HCC-2998 colon
[26] = tested on: PC-3 prostate
[27] = tested on: CCRF-CEM leukemia
[28] = tested on: A498 renal
[29] = tested on: MOLT-4 leukemia
[30] = tested on: HT29 colon
[31] = tested on: DU-145 prostate
[32] = tested on: UACC-257 melanoma
[33] = tested on: SF-268 CNS
[34] = tested on: NCI-H522 lung
[35] = tested on: NCI-H226 lung
[36] = tested on: OVCAR-3 ovarian
[37] = tested on: MDA-MB-435
[38] = tested on: NCI-H460 lung
[39] = tested on: COLO 205 colon
[40] = tested on: RPMI-8226 leukemia
[41] = tested on: IGROV1 ovarian
[42] = tested on: OVCAR-4 ovarian
[43] = tested on: SF-295 CNS
[44] = tested on: KM12 colon
[45] = tested on: TK-10 renal
[46] = tested on: SW-620 colon
[47] = tested on: SK-MEL-5 melanoma
[48] = tested on: EKVX NSCLC
[49] = tested on: T-47D breast
[50] = tested on: M14 melanoma
[51] = tested on: U251 CNS
[52] = tested on: 786-0 renal
[53] = tested on: A549 NSCLC
[54] = tested on: HS 578T breast
[55] = tested on: SK-MEL-28 melanoma

COc1ccc2ccccc2c1/C=C1\SC(=Nc2ccc(O)cc2)NC1=O
GI50 [1]: 2.58 µM
TGI [1]: 13.6 µM
GI50 [2]: 1.58 µM
TGI [2]: 6.51 µM
GI50 [3]: 0.442 µM
TGI [3]: 11.1 µM
GI50 [4]: 1.81 µM
TGI [4]: 16.3 µM
GI50 [5]: 0.432 µM
TGI [5]: 11.6 µM
GI50 [6]: 0.346 µM
TGI [6]: 12.5 µM
GI50 [7]: 0.517 µM
TGI [7]: 3.4 µM
GI50 [8]: 2.05 µM
TGI [8]: 20.3 µM
GI50 [9]: 1.8 µM
TGI [9]: 14 µM
GI50 [10]: 0.95 µM
TGI [10]: 3.8 µM
GI50 [11]: 0.666 µM
TGI [11]: 12.1 µM
GI50 [12]: 11.1 µM
TGI [12]: 46.5 µM
GI50 [13]: 0.272 µM
TGI [13]: 1.71 µM
GI50 [14]: 0.428 µM
TGI [14]: 12.5 µM
GI50 [15]: 1.04 µM
TGI [15]: 4.54 µM
GI50 [16]: 1.02 µM
TGI [16]: 14.4 µM
GI50 [17]: 1.66 µM
TGI [17]: 18 µM
GI50 [18]: 0.431 µM
TGI [18]: 2.65 µM
GI50 [19]: 3.56 µM
TGI [19]: 16.2 µM
GI50 [20]: 0.413 µM
TGI [20]: 11.9 µM
GI50 [21]: 0.37 µM
TGI [21]: 1.82 µM
GI50 [22]: 1.11 µM
TGI [22]: 11.3 µM
GI50 [23]: 0.321 µM
TGI [23]: 12.5 µM
GI50 [24]: 2.48 µM
TGI [24]: 13.3 µM
GI50 [25]: 1.73 µM
TGI [25]: 12.6 µM
GI50 [26]: 0.798 µM
TGI [26]: 29.1 µM
GI50 [27]: 0.651 µM
TGI [27]: 30.1 µM
GI50 [28]: 3.7 µM
TGI [28]: 16.4 µM
GI50 [29]: 1.51 µM
TGI [29]: 11.3 µM
GI50 [30]: 2.82 µM
TGI [30]: 7.35 µM
GI50 [31]: 2.17 µM
TGI [31]: 19.6 µM
GI50 [32]: 0.683 µM
TGI [32]: 19.6 µM
GI50 [33]: 1.59 µM
TGI [33]: 18.7 µM
GI50 [34]: 0.422 µM
TGI [34]: 2.22 µM
GI50 [35]: 5.56 µM
TGI [35]: 34.7 µM
GI50 [36]: 0.425 µM
TGI [36]: 11.7 µM
GI50 [37]: 0.235 µM
TGI [37]: 0.591 µM
GI50 [38]: 0.833 µM
TGI [38]: 11.3 µM
GI50 [39]: 1.88 µM
TGI [39]: 5.04 µM
GI50 [40]: 2.59 µM
TGI [40]: 9.45 µM
GI50 [41]: 1.85 µM
TGI [41]: 14.4 µM
GI50 [42]: 3.81 µM
TGI [42]: 21.1 µM
GI50 [43]: 0.843 µM
TGI [43]: 10.9 µM
GI50 [44]: 1.19 µM
TGI [44]: 14.8 µM
GI50 [45]: 4.14 µM
TGI [45]: 21.6 µM
GI50 [46]: 0.437 µM
TGI [46]: 15.8 µM
GI50 [47]: 0.54 µM
TGI [47]: 2.28 µM
GI50 [48]: 1.11 µM
TGI [48]: 17.3 µM
GI50 [49]: 0.765 µM
TGI [49]: 31.7 µM
GI50 [50]: 0.492 µM
TGI [50]: 10.8 µM
GI50 [51]: 0.425 µM
TGI [51]: 11.3 µM
GI50 [52]: 3.19 µM
TGI [52]: 21 µM
GI50 [53]: 2.01 µM
TGI [53]: 16.9 µM
GI50 [54]: 0.4 µM
TGI [54]: 11.9 µM
GI50 [55]: 0.966 µM
TGI [55]: 19.9 µM
